The source of these data is ChEMBL document CHEMBL1151828, “Screening of flavonoids as candidate antibiotics against Enterococcus faecalis” (J Nat Prod, 2009).

≈ marks a conversion by molar mass, not a printed value.

In data set [1] the test system is Enterococcus faecalis. The data set can be described thus: Antimicrobial activity against Enterococcus faecalis after 20 hrs by broth microdilution method. It is filed as functional.
For data set [2], the system named is Enterococcus faecalis. The data set can be described thus: Antimicrobial activity against vancomycin-resistant Enterococcus faecalis after 20 hrs by broth microdilution method. It is filed as functional.
The nature of data set [3]: Solubility at 1 mM. Type of data set: physicochemical. The settings on record: 1000 µM.

For the compound `O=C1c2ccc(O)cc2OC(c2cc(O)c(O)c(O)c2)C1O` (centres undefined) [DIHYDROBINETIN], the results for the minimal inhibitory concentration (MIC) against Enterococcus faecalis [1] and with Enterococcus faecalis [2] were 256 µg/mL (≈ 841 µM) and greater than 512 µg/mL, respectively. For the same compound, the solubility result in data set [3] is given as “Insoluble”.
Consider `O=C1C[C@@H](c2ccc(O)c(O)c2)Oc2cc(O)cc(O)c21` [ERIODICTYOL], for which the MIC in the data set on Enterococcus faecalis [1] came to 256 µg/mL (≈ 888 µM); with Enterococcus faecalis [2], 512 µg/mL (≈ 1780 µM).
In the same order, the values of `O=C1c2c(O)cc(O)cc2O[C@H](c2ccc(O)c(O)c2)[C@H]1O` [(+)-TAXIFOLIN] are 128 µg/mL (≈ 421 µM) and 512 µg/mL (≈ 1680 µM).
In the case of `O=C1CC(c2cccc(O)c2)Oc2ccccc21` (centres undefined) [3'-HYDROXYFLAVANONE], the minimal inhibitory concentration (MIC) in the data set on Enterococcus faecalis [1] and against Enterococcus faecalis [2] was 256 µg/mL (≈ 1070 µM) in each case.
On to `O=C1C[C@@H](c2ccc(O)cc2)Oc2cc(O)cc(O)c21` [NARINGENIN], for which the MIC with Enterococcus faecalis [1] stood at 256 µg/mL (≈ 940 µM); against Enterococcus faecalis [2], 512 µg/mL (≈ 1880 µM).
For `O=C1CC(c2ccccc2O)Oc2ccc(O)cc21` (centres undefined) the same measures were 256 µg/mL (≈ 999 µM) and 256 µg/mL (≈ 999 µM).
Consider `O=C1C[C@@H](c2ccccc2)Oc2cc(O)cc(O)c21` [PINOCEMBRIN], for which, in the data set on Enterococcus faecalis [1], the MIC was greater than 512 µg/mL.
